Laboratory results taken from patent US9840498B2, “Substituted quinazolin-4-one derivatives” (NOVARTIS AG, priority 2013, dated 2017).

Each compound was assayed against PI 3-Kinase Gamma (Homo sapiens (Human), UniProt P48736) (assay: Cellular U937 AKT assay for PI 3-kinase gamma). Settings: U937 cells, MIP1α-stimulated AKT phosphorylation, read-out: Cell PI3K gamma IC50.
PI 3-Kinase Gamma, sequence (P48736 whole entry): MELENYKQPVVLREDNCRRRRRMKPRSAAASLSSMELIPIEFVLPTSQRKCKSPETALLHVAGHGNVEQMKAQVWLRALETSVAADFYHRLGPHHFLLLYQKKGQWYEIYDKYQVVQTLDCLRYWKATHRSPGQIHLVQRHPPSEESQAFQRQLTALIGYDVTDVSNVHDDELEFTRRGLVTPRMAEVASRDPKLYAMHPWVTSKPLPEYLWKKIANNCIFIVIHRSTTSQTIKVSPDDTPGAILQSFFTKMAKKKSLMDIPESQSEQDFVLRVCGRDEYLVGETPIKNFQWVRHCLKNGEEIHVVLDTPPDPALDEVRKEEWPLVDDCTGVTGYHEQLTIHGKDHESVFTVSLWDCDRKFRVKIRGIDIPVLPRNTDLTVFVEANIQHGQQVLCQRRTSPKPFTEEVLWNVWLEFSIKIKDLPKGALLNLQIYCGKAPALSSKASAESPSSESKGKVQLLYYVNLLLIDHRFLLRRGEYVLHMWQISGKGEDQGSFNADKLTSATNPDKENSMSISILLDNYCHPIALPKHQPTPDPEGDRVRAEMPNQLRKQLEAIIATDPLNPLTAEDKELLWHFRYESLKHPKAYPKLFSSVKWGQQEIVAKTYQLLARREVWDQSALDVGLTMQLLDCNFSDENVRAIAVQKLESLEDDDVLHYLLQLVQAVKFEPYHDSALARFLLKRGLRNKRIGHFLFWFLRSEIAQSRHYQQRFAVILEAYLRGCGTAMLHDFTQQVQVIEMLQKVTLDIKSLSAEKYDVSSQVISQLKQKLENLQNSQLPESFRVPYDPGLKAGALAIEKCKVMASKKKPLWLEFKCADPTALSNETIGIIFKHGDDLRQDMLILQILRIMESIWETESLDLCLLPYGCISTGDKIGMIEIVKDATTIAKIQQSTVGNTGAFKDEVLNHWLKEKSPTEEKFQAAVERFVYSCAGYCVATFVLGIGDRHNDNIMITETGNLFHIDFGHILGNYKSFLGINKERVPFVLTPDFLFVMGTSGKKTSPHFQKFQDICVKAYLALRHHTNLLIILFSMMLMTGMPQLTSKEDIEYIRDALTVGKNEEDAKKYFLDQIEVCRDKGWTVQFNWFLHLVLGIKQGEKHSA
Format: cell-based
Protocol: The U937 monocyte cell line is maintained in a basal medium of RPMI 1640 supplemented with 10% heat inactivated FCS, 100 U/ml Penicillin, 100 ug/ml streptomycin and 2 mM L-glutamine (Invitrogen). U937 suspension culture is maintained by seeding cells at a density of 0.125×10^6 cells per ml in fresh medium every three or four days. Cells are incubated at 37° C., 5% CO2. […] Before beginning the cell manipulations described below, the MSD (Meso Scale Discovery) assay plate is blocked by addition of 150 ul/well blocking buffer supplied and incubated with shaking for a minimum of one hour at room temperature. All steps of the assay must be performed quickly, with accurately timed incubation periods and observing temperature controls where indicated. […] Falcon tube, counted and centrifuged for eight minutes at 300 g at room temperature. Supernatant is aspirated, the cell pellet resuspended and washed once in HBSS (Hank's Balanced Salt Solution) by centrifugation for eight minutes at 300 g at room temperature. The cell pellet is resuspended in HBSS to a concentration of 4×10^6 per ml, and 100 μL of cell suspension added to each well of a flat-bottomed 96-well tissue culture plate. Assay plates are incubated for 1.5 hours at 37° C., 5% CO2 to allow background AKT phosphorylation to reduce before the compound stimulation step. […] Compound concentrations at this stage are 4-times the final concentration required in the assay plate. Cells are stimulated with compound or HBSS 0.8% DMSO by direct transfer of 50 ul/well from the compound dilution plate. The assay plate containing compound-treated cells is then incubated for 30 minutes at 37° C. A standard plate layout is used for all experiments. Compound-treated cells, in addition to positive control wells (“max MIP1α”), are stimulated with 50 μL per well of 40 ng/ml MIP1α (R&D Systems catalogue number 270-LD, lyophilized stock reconstituted to 50 μg/ml with PBS 0.1% BSA). Negative control wells (“min HBSS”), are stimulated with 50 μl/well of HBSS in the absence of MIP1α. […] Cells are incubated with MIP1α for 3 minutes, at 37° C., 5% CO2. After the three minute stimulation period, the assay plate is kept ice cold at all times. Assay plates are centrifuged for 2 minutes at 300 g, 4° C. and supernatant is removed by gently inverting, and then blotting the plate on tissue. Cells are then washed by gentle addition of 150 μL/well of ice cold HBSS and centrifugation at 300 g, for 5 minutes at 4° C. Supernatant is aspirated and the plate blotted as described above. The plate is placed on ice and cells are immediately treated with 35 μL per well of ice cold lysis buffer, prepared according to the kit instructions (per assay plate, to 5 ml of Tris lysis buffer add 100 μl of 50× protease inhibitor solution and 50 μl of each 100× phosphatase inhibitor solutions I and II). Plates are incubated on ice for 20 minutes before centrifugation at 841 g for 5 minutes, 4° C. Block buffer is aspirated from the MSD plate, and the plate washed four times with 300 μl/well Tris wash buffer. 25 μL of cell lysate is then transferred from the assay plate to the washed MSD plate which is sealed and incubated at room temperature for one hour with shaking. The plate is washed four times with 300 μL per well of Tris wash buffer before addition of 25 μL per well of sulfo-tag anti-total AKT/pAKT detection antibody (60 μl of 50× antibody stock is diluted in 1 ml block buffer mixed with 2 ml wash buffer) and incubated at room temperature for one hour with shaking. The plate is washed four times with 300 μl per well of Tris wash buffer and 150 μl per well of Read buffer is added, taking care to avoid the introduction of bubbles. The plate is immediately read using an MSD SECTOR Imager 6000. Results are exported in Excel and the percentage of phosphorylated AKT is calculated using the equation: % Phosphoprotein=((2*Phospho signal)/(Phospho signal+Total signal))*100. […]
`COc1ncc(-c2cccc3nc([C@@H]4C[C@H](OC)CN4c4nc(N)nc(C)c4C#N)n(-c4ccccc4)c(=O)c23)cn1` [Example 12, 2-Amino-4-((2S,4S)-4-methoxy-2-(5-(2-methoxypyrimidin-5-yl)-4-oxo-3-phenyl-3,4-dihydroquinazolin-2-yl)pyrrolidin-1-yl)-6-methylpyrimidine-5-carbonitrile] was tested, and the IC50 was 120 nM. Compound `Cc1ccccc1-n1c([C@@H]2CCCN2c2ncnc(N)c2C#N)nc2cccc(-c3cnn(C)c3)c2c1=O` [Example 14, (S)-4-Amino-6-(2-(5-(1-methyl-1H-pyrazol-4-yl)-4-oxo-3-(otolyl)-3,4-dihydroquinazolin-2-yl)pyrrolidin-1-yl)pyrimidine-5-carbonitrile] has an IC50 of 210 nM. In the case of `Cn1cnc(-c2cccc3nc([C@@H]4CCCN4c4ncnc(N)c4C#N)n(-c4ccccc4)c(=O)c23)c1` [Example 15, (S)-4-Amino-6-(2-(5-(1-methyl-1H-imidazol-4-yl)-4-oxo-3-phenyl-3,4-dihydroquinazolin-2-yl)pyrrolidin-1-yl)pyrimidine-5-carbonitrile], the IC50 is reported as > 10000 nM. With `Cc1nc(N)nc(N2C[C@@H](O)C[C@H]2c2nc3cccc(-c4cnn(C)c4)c3c(=O)n2-c2ccccc2)c1C#N` [Example 16, 2-Amino-4-((2S,4S)-4-hydroxy-2-(5-(1-methyl-1H-pyrazol-4-yl)-4-oxo-3-phenyl-3,4-dihydroquinazolin-2-yl)pyrrolidin-1-yl)-6-methylpyrimidine-5-carbonitrile] the IC50 was 55 nM. In the case of `Cc1nc(N)nc(N2CCC[C@H]2c2nc3cccc(-c4cncnc4)c3c(=O)n2-c2ccccc2)c1C#N` [Example 17, (S)-2-Amino-4-methyl-6-(2-(4-oxo-3-phenyl-5-(pyrimidin-5-yl)-3,4-dihydroquinazolin-2-yl)pyrrolidin-1-yl)pyrimidine-5-carbonitrile], the IC50 is reported as 290 nM. `COc1cncc(-c2cccc3nc([C@@H]4CCCN4c4nc(N)nc(C)c4C#N)n(-c4ccccc4)c(=O)c23)c1` [Example 18, (S)-2-Amino-4-(2-(5-(5-methoxypyridin-3-yl)-4-oxo-3-phenyl-3,4-dihydroquinazolin-2-yl)pyrrolidin-1-yl)-6-methylpyrimidine-5-carbonitrile] gave an IC50 of 16 nM. `Cc1ncc(-c2cccc3nc([C@@H]4CCCN4c4nc(N)nc(C)c4C#N)n(-c4ccccc4)c(=O)c23)cn1` [Example 19, (S)-2-Amino-4-methyl-6-(2-(5-(2-methylpyrimidin-5-yl)-4-oxo-3-phenyl-3,4-dihydroquinazolin-2-yl)pyrrolidin-1-yl)pyrimidine-5-carbonitrile] showed an IC50 of 220 nM. `Cc1nc(N)nc(N2CCC[C@H]2c2nc3cccc(-c4cccnc4)c3c(=O)n2-c2ccccc2)c1C#N` [Example 20, (S)-2-Amino-4-methyl-6-(2-(4-oxo-3-phenyl-5-(pyridin-3-yl)-3,4-dihydroquinazolin-2-yl)pyrrolidin-1-yl)pyrimidine-5-carbonitrile] gave an IC50 of 270 nM. `COc1ccc(-c2cccc3nc([C@@H]4CCCN4c4nc(N)nc(C)c4C#N)n(-c4ccccc4)c(=O)c23)cn1` [Example 21, (S)-2-Amino-4-(2-(5-(6-methoxypyridin-3-yl)-4-oxo-3-phenyl-3,4-dihydroquinazolin-2-yl)pyrrolidin-1-yl)-6-methylpyrimidine-5-carbonitrile] gave an IC50 of 1100 nM. `COc1ncc(-c2cccc3nc([C@@H]4C[C@H](O)CN4c4nc(N)nc(C)c4C#N)n(-c4ccccc4)c(=O)c23)cn1` [Example 22, 2-Amino-4-((2S,4S)-4-hydroxy-2-(5-(2-methoxypyrimidin-5-yl)-4-oxo-3-phenyl-3,4-dihydroquinazolin-2-yl)pyrrolidin-1-yl)-6-methylpyrimidine-5-carbonitrile] gave an IC50 of 18 nM. Work on `Cc1nc(N)nc(N2C[C@@H](O)C[C@H]2c2nc3cccc(-c4cccnc4)c3c(=O)n2-c2ccccc2)c1C#N` [Example 24, 2-Amino-4-((2S,4S)-4-hydroxy-2-(4-oxo-3-phenyl-5-(pyridin-3-yl)-3,4-dihydroquinazolin-2-yl)pyrrolidin-1-yl)-6-methylpyrimidine-5-carbonitrile] yielded an IC50 of 9 nM. For `COc1cncc(-c2cccc3nc([C@@H]4C[C@H](O)CN4c4nc(N)nc(C)c4C#N)n(-c4ccccc4)c(=O)c23)c1` [Example 25, 2-Amino-4-((2S,4S)-4-hydroxy-2-(5-(5-methoxypyridin-3-yl)-4-oxo-3-phenyl-3,4-dihydroquinazolin-2-yl)pyrrolidin-1-yl)-6-methylpyrimidine-5-carbonitrile], the IC50 was 49 nM. `Cc1nc(N)nc(N2C[C@@H](O)C[C@H]2c2nc3cccc(-c4cncnc4)c3c(=O)n2-c2ccccc2)c1C#N` [Example 26, 2-Amino-4-((2S,4S)-4-hydroxy-2-(4-oxo-3-phenyl-5-(pyrimidin-5-yl)-3,4-dihydroquinazolin-2-yl)pyrrolidin-1-yl)-6-methylpyrimidine-5-carbonitrile] was tested, and the IC50 was 170 nM. Work on `COc1ccc(-c2cccc3nc([C@@H]4C[C@H](O)CN4c4nc(N)nc(C)c4C#N)n(-c4ccccc4)c(=O)c23)cn1` [Example 27, 2-Amino-4-((2S,4S)-4-hydroxy-2-(5-(6-methoxypyridin-3-yl)-4-oxo-3-phenyl-3,4-dihydroquinazolin-2-yl)pyrrolidin-1-yl)-6-methylpyrimidine-5-carbonitrile] yielded an IC50 of 63 nM. With `Cc1nc(N)nc(N2C[C@@H](O)C[C@H]2c2nc3cccc(-c4cnn(CCO)c4)c3c(=O)n2-c2ccccc2)c1C#N` [Example 28, 2-Amino-4-((2S,4S)-4-hydroxy-2-(5-(1-(2-hydroxyethyl)-1H-pyrazol-4-yl)-4-oxo-3-phenyl-3,4-dihydroquinazolin-2-yl)pyrrolidin-1-yl)-6-methylpyrimidine-5-carbonitrile] the IC50 was 120 nM. In the case of `CCOc1ncc(-c2c(F)ccc3nc([C@@H]4C[C@H](O)CN4c4nc(N)nc(C)c4C#N)n(-c4ccccc4)c(=O)c23)cn1` [Example 29, 2-Amino-4-((2S,4S)-2-(5-(2-ethoxypyrimidin-5-yl)-6-fluoro-4-oxo-3-phenyl-3,4-dihydroquinazolin-2-yl)-4-hydroxypyrrolidin-1-yl)-6-methylpyrimidine-5-carbonitrile], the IC50 is reported as 38 nM. In the case of `Cc1nc(N)nc(N2C[C@@H](F)C[C@H]2c2nc3cccc(-c4cnn(C)c4)c3c(=O)n2-c2ccccc2)c1C#N` [Example 30, 2-Amino-4-((2S,4S)-4-fluoro-2-(5-(1-methyl-1H-pyrazol-4-yl)-4-oxo-3-phenyl-3,4-dihydroquinazolin-2-yl)pyrrolidin-1-yl)-6-methylpyrimidine-5-carbonitrile], the IC50 is reported as 11 nM. Work on `Cc1nc(N)nc(N2C[C@@H](O)C[C@H]2c2nc3ccc(F)c(-c4cn(C)cn4)c3c(=O)n2-c2ccccc2)c1C#N` [Example 31, 2-Amino-4-((2S,4S)-2-(6-fluoro-5-(1-methyl-1H-imidazol-4-yl)-4-oxo-3-phenyl-3,4-dihydroquinazolin-2-yl)-4-hydroxypyrrolidin-1-yl)-6-methylpyrimidine-5-carbonitrile] yielded an IC50 of 240 nM. For `CCOc1ncc(-c2cccc3nc([C@@H]4CCCN4c4nc(N)nc(C)c4C#N)n(-c4ccccc4)c(=O)c23)cn1` [Example 32, (S)-2-Amino-4-(2-(5-(2-ethoxypyrimidin-5-yl)-4-oxo-3-phenyl-3,4-dihydroquinazolin-2-yl)pyrrolidin-1-yl)-6-methylpyrimidine-5-carbonitrile], the IC50 was 720 nM. `N#Cc1c(N)ncnc1N1CCC[C@H]1c1nc2cccc(C#CCO)c2c(=O)n1-c1ccccc1` [Example 33, (S)-4-Amino-6-(2-(5-(3-hydroxyprop-1-yn-1-yl)-4-oxo-3-phenyl-3,4-dihydroquinazolin-2-yl)pyrrolidin-1-yl)pyrimidine-5-carbonitrile] was tested, and the IC50 was 120 nM.
